Counter-ions that a name gives are not always drawn.
Assays:
[1] = i.v. pharmacokinetics in Wistar rats; format: in vivo; details: after i.v. administration
Description: e) i.v. Pharmacokinetics in Wistar Rats:
(§1) On the day before administration of the substance, a catheter for obtaining blood is implanted in the jugular vein of the experimental animals (male Wistar rats, body weight 200-250 g) under Isofluran® anesthesia.
(§2) On the day of the experiment, a defined dose of the test substance is administered as solution into the tail vein using a Hamilton® glass syringe (bolus administration, duration of administration<10 s). Blood samples (8-12 time points) are taken through the catheter sequentially over the course of 24 h after administration of the substance. Plasma is obtained by centrifuging the samples in heparinized tubes. Acetonitrile is added to a defined plasma volume per time point to precipitate proteins. After centrifugation, test substance and, where appropriate, known cleavage products of the test substance in the supernatant are determined quantitatively using a suitable LC/MS-MS method.
The measured plasma concentrations are used to calculate pharmacokinetic parameters of the test substance and of the active ingredient compound (A) liberated therefrom, such as AUC, Cmax, T1/2 (half-life) and CL (clearance).

[2] = Stability in suspension (isopropanol, 7 days); format: physicochemical; details: room temperature, LC/MS
Description: c) Stability in Suspension and as Solid:
4.7-4.8 g of the test substance are suspended in 200 ml of isopropanol and stirred at room temperature for 7 days. The solid is filtered off and air-dried at room temperature for 3 days. LC/MS (Method 2) is then used to measure whether there has been a degradation of the test substance.

[3] = Determination of the solubility in 5% strength aqueous dextrose solution; format: physicochemical; details: saline or isotonic, thermodynamic from solid, room temperature, 24 h
Description: B-8. Determination of Solubility, Stability and Liberation Behavior a) Determination of the Solubility:
The test substance is suspended in 5% strength aqueous dextrose solution. This suspension is shaken at room temperature for 24 h. After ultracentrifugation at 224 000 g for 30 min, the supernatant is diluted with DMSO and analyzed by HPLC. A two-point calibration plot of the test compound in DMSO is used for quantification.
Agilent 1100 with DAD (G1315A), quat. pump (G1311A), autosampler CTC HTS PAL, degasser (G1322A) and column thermostat (G1316A); column: Phenomenex Gemini C18, 5 μm, 50 mm×2 mm; temperature: 40° C.; eluent A: water/phosphoric acid pH 2; eluent B: acetonitrile; flow rate: 0.7 ml/min; gradient: 0-0.5 min 85% A, 15% B; ramp: 0.5-3 min 10% A, 90% B; 3-3.5 min 10% A, 90% B; ramp: 3.5-4 min 85% A, 15% B; 4-5 min 85% A, 15% B.
Agilent 1100 with DAD (G1315A), quat. pump (G1311A), autosampler CTC HTS PAL, degasser (G1322A) and column thermostat (G1316A); column: VDSoptilab Kromasil 100 C18, 3.5 μm, 60 mm×2.1 mm; temperature: 30° C.; eluent A: water+5 ml perchloric acid/I; eluent B: acetonitrile; flow rate: 0.75 ml/min; gradient: 0-0.5 min 98% A, 2% B; ramp: 0.5-4.5 min 10% A, 90% B; 4.5-6 min 10% A, 90% B; ramp: 6.5-6.7 min 98% A, 2% B; 6.7-7.5 min 98% A, 2% B.

[4] = Stability in buffer at various pH values; format: physicochemical
Description: b) Stability in Buffer at Various pH Values:
0.3 mg of the test substance is weighed into a 2 ml HPLC vial and 0.5 ml of acetonitrile or acetonitrile/DMSO (9:1) is added. The substance is dissolved by putting the sample vessel in an ultrasonic bath for about 10 seconds. Then 0.5 ml of the respective (buffer) solution is added, and the sample is again treated in the ultrasonic bath.
(Buffer) solutions employed:
pH 4: 1 liter of Millipore water is adjusted to pH 4.0 with 1 N hydrochloric acid;
pH 7.4: 90.0 g of sodium chloride, 13.61 g of potassium dihydrogen phosphate and 83.35 g of 1 N sodium hydroxide solution are made up to 1 liter with water; this solution is then further diluted 1:10 with Millipore water.
5 μl portions of the test solution are analyzed by HPLC for their content of unchanged test substance, and of active substance (A) produced, every hour over a period of 24 hours at 37° C. The percentage areas of the appropriate peaks are used for quantification.
HPLC method for Examples 41 and 44:
(§3) Agilent 1100 with DAD (G1315B), binary pump (G1312A), autosampler (G1329A), column oven (G1316A), thermostat (G1330B); column: Kromasil 100 C18, 250 mm×4 mm, 5 μm; column temperature: 30° C.; mobile phase A: water+5 ml of perchloric acid/liter, eluent B: acetonitrile; gradient: 0 min 90% A→5.0 min 40% A→18.0 min 10% A→19.0 min 10% A→21.0 min 90% A→23.0 min 90% A; flow rate: 2.0 ml/min; UV detection: 288 nm.
HPLC Method for Examples 50 and 59:
as §3, with “125” for “250”, “60% A→7.0 min 60% A→10.0” for “40% A→18.0”, “A→12.0” for “A→19.0”, “A→14.0” for “A→21.0”, “A→16.0” for “A→23.0”, “294” for “288”
HPLC Method for Example 54:
as §3, with “(G1314A),” for “(G1315B),”, “(G1330A);” for “(G1330B);”
The ratios of the peak areas (F) at the respective time points in relation to the peak areas at the starting time are shown in Table 2 for representative exemplary embodiments: […]

[5] = tested on: spontaneously hypertensive rats; experiment: Measurement of blood pressure and heart rate on awake rats (telemetry); format: in vivo; details: maximum reduction in heart rate, oral administration of 3 mg/kg, awake SH rats
Description: B-5. Measurement of Blood Pressure and Heart Rate
Awake spontaneously hypertensive rats (SH-Ratten) carrying an internal transmitter capable of measuring permanently both blood pressure and heart rate (telemetric monitoring of hemodynamic parameters) and sitting in a cage fitted with motion sensors are orally administered test substances in various dosages. Blood pressure and heart rate and changes thereof, and also the movements and the activity of the animals are then recorded and evaluated for 24 hours.

[6] = Oral pharmacokinetics in Wistar rats; format: in vivo; details: after oral administration
Description: f) Oral Pharmacokinetics in Wistar Rats:
as §1
as §2, with “stomach by gavage.” for “tail vein using a Hamilton® glass syringe (bolus administration, duration of administration<10 s).”
The measured plasma concentrations are used to calculate pharmacokinetic parameters of the test substance and of the active ingredient compound (A) liberated therefrom, such as AUC, Cmax and T1/2 (half-life).

[7] = Stability as solid (90° C., 7 days); format: physicochemical; details: sealed vial, HPLC
Description: To assess the stability of the solids, 20 mg of the solids obtained in this manner are stored in a sealed Head-Space vial at 90° C. in a drying cabinet without vacuum for 7 days. HPLC is then used to measure whether there has been a degradation of the test substance.
HPLC Method for Measuring the Stability of the Solid of Example 63:
HPLC Method for Measuring the Stability of the Solid of Example 44: […]

Degradation of the test substance in suspension [2]	solubility at 24 h [3] [µg/mL]	% test substance after 4 h (F(t = 4 h) × 100/F(t = 0 h)) ([4]; pH 4, 37° C.) [%]	% test substance after 24 h (F(t = 24 h) × 100/F(t = 0 h)) ([4]; pH 4, 37° C.) [%]	% test substance after 4 h (F(t = 4 h) × 100/F(t = 0 h)) ([4]; pH 7.4, 37° C.) [%]	% test substance after 24 h (F(t = 24 h) × 100/F(t = 0 h)) ([4]; pH 7.4, 37° C.) [%]	Degradation of the solid [7]	SMILES	Detectability of the administered substance in plasma [1]	Heart rate reduction [5] [%]	Detectability of the administered substance in plasma [6]
no degradation	410	99	99	78	26	no degradation	C[C@H](N)C(=O)N[C@@H](C)C(=O)OCCOc1ccc(-c2c(C#N)c(SCc3csc(-c4ccc(Cl)cc4)n3)nc(N3CCCC3)c2C#N)cc1 [Example 44, 2-{4-(2-({(2-(4-Chlorophenyl)-1,3-thiazol-4-yl)methyl}sulfanyl)-3,5-dicyano-6-(pyrrolidin-1-yl)pyridin-4-yl)phenoxy}ethyl L-alanyl-L-alaninate hydrochloride]	no longer detectable in plasma even at the first measurement point	−20	no longer detectable in plasma even at the first measurement point
	650	97	99	37	0		C[C@H](NC(=O)[C@@H](N)CCCCN)C(=O)OCCOc1ccc(-c2c(C#N)c(SCc3csc(-c4ccc(Cl)cc4)n3)nc(N3CCCC3)c2C#N)cc1 [Example 41, 2-{4-(2-({(2-(4-Chlorophenyl)-1,3-thiazol-4-ylmethyl}sulfanyl)-3,5-dicyano-6-(pyrrolidin-1-yl)pyridin-4-yl)phenoxy}ethyl L-lysyl-L-alaninatedihydrochloride]	no longer detectable in plasma even at the first measurement point	−5	no longer detectable in plasma even at the first measurement point
no degradation		98	98	93	67	no degradation	CC[C@H](C)[C@H](N)C(=O)N[C@@H](C)C(=O)OCCOc1ccc(-c2c(C#N)c(SCc3csc(-c4ccc(Cl)cc4)n3)nc(N3CCCC3)c2C#N)cc1 [Example 63, 2-{4-(2-({(2-(4-Chlorophenyl)-1,3-thiazol-4-yl)methyl}sulfanyl)-3,5-dicyano-6-(pyrrolidin-1-yl)pyridin-4-yl)phenoxy}ethyl L-isoleucyl-L-alaninate hydrochloride]	no longer detectable in plasma even at the first measurement point	−20	no longer detectable in plasma even at the first measurement point

From patent US8772498B2, “Alkylamine-substituted dicyanopyridine and amino acid ester prodrugs thereof” (Bayer Intellectual Property GmbH, priority 2009, dated 2014)
